From patent publication US20150219624A1, “METHODS FOR IDENTIFYING ANTI-CANCER COMPOUNDS” (MEMORIAL SLOAN KETTERING CANCER CENTER, priority 2013, published 2015)

Columns and labels:
KOPTK1 cells = experiment: Metabolic labeling of nascent protein with L-azidohomoalanine (AHA); type: cell-based, human; conditions: 100 nM; p vs. vehicle 2×10−4
Protocol: (Non-radioactive) Metabolic labeling of nascent protein. KOPTK1 cells were labeled for nascent protein synthesis using Click-iTR AHA (L-azidohomoalanine) metabolic labeling reagent obtained from Invitrogen (cat no. C10102) as per manufacturer's instructions. Briefly, following silvestrol, Cycloheximide or DMSO treated cells were incubated in methionine free medium for 30 min prior to AHA labeling for 1 hr. Cells were fixed with 4% paraformaldehyde in PBS for 15 min, permeablized with 0.25% Triton X-100 in PBS for 15 min followed by one wash with 3% BSA. Cells were then stained using Alexa Fluor 488 Alkyne (Invitrogen cat no. A10267) with Click-iT Cell reaction Buffer Kit (Invitrogen cat no. C10269). Changes in mean fluorescence intensity as a measure of newly synthesized protein was detected by Flow cytometry analysis.
The number of ribosomes occupying a given transcript is given as gene specific RF reads per one million total reads (RPM).
FIG. 10 depicts ribosome profiling quality control data and effects on translation. A and B) Read counts by length of mapped sequence before and after filtering rRNA, linker reads, non-coding RNAs, short mapped sequences (“noisy” reads; see text and method for details). C and D) Read length frequency histograms and mapping analysis of ribosome footprint data after quality control filtering for vehicle treated cells (C) or silvestrol treated cells (D). […]

[1] = test system: cap-dependent translation; experiment: Dual-luciferase reporter assay (capped vs IRES-driven luciferase); type: cell-based; conditions: renilla and firefly luciferase either capped or under control of an IRES element
Protocol: Luciferase assays. Four tandem repeats of the (CGG)4 12-mer motif (GQs) or random sequence matched for length and GC content (random) were cloned into the 5′UTR of Renilla luciferase plasmid pGL4.73. Empty firefly luciferase plasmid pGL4.13 or HCV-IRES firefly were used as internal controls. Luciferase assays were performed using Dual-Luciferase Reporter Assay System (Promega E1960) following the manufacturer's instructions. GQs sequence: […]

Structure (SMILES)	max. reduction of nascent protein synthesis (AHA labeling) (KOPTK1 cells)	block of cap-dependent versus IRES-dependent translation [1]
C[C@@H]1C[C@@H]([C@H](O)CC2CC(=O)NC(=O)C2)C(=O)[C@@H](C)C1 [cycloheximide, Cycloheximide]	80%	
C[C@H]1C[C@@]2(O[C@H]3C[C@H]4[C@@H]5CC[C@H]6C[C@H](O)CC[C@]6(C)[C@H]5[C@@H](O)C[C@]4(C)[C@H]3[C@@]2(C)O)OC1(C)C [hippuristanol]		preferentially block cap-dependent over IRES-dependent translation
CC(/C=C/C(C)=C/[C@@H]1Cc2nc(cs2)[C@@H](C)C[C@@H](N)CC(=O)O[C@@H](C)C/C(C)=C/C=C\C(=O)O1)=C\CN(C)C [pateamine A, (3S,6Z,8E,11S,15R,17S)-15-amino-3-[(1E,3E,5E)-7-(dimethylamino)-2,5-dimethylhepta-1,3,5-trienyl]-9,11,17-trimethyl-4,12-dioxa-20-thia-21-azabicyclo[16.2.1]henicosa-1(21),6,8,18-tetraene-5,13-dione]		preferentially block cap-dependent over IRES-dependent translation
